Like-named read-outs stand apart in the source and are kept apart here.
Legend:
[1] = system: AA-induced platelet aggregation; test: Inhibitory effect on AA-induced platelet aggregation in rats in vitro (washed platelets); format: cell-based, rat; conditions: 1*10^−4 M
Description: Several experimental groups were established, including a blank control group, an AA (arachidonic acid) model control group, and various test compounds. Each test compound had three concentration groups: 10^−3 M, 10^−4 M, and 10^−5 M. The data from the blank and model control group were shared among the different drug concentration groups as a control.
Male SD rats were anesthetized with 3% chloral hydrate (300 mg/kg) through intraperitoneal injection. After being fixed in a supine position, the skin of the neck was cut about 3 cm, bluntly separated with a hemostat, and the trachea was exposed after the common carotid artery was separated. The distal end of the common carotid artery was ligated with a fine thread, and the proximal end was clamped with an arterial clamp for vascular intubation. After the intubation was fixed, the artery clamp was opened, and the blood was placed into a blood collection tube containing 3.8% trisodium citrate so that the blood was mixed well with the 3.8% trisodium citrate in a volume ratio of 9:1.
The prepared anticoagulant blood was mixed well and centrifuged for 10 minutes at 500 rpm, then the upper layer of plasma was aspirated to obtain platelet-rich plasma (PRP), and the PRP was centrifuged again for 5 minutes at 3,000 rpm. The supernatant was discarded, and the platelet precipitate was obtained, which was washed once with Ca^2+-free HEPES-Tyrode's buffer, then centrifuged at 3,000 rpm for 5 minutes. The supernatant was discarded, and the platelets were resuspended with Ca^2+-free HEPES-Tyrode's buffer to obtain the washed platelets.
First, 300 μL of Ca^2+-containing HEPES-Tyrode's solution was taken into the test cup, put into the test wells, and calibrated by pressing the “PPP” key. Subsequently, 240 μL of the washed platelets were added to the test cup, then added with 30 μL of different concentrations of drug solution, incubated for 10 minutes at 37° C. in a preheated bath, and then put into the test wells. 3 μL of 100× CaCl2 solution (final concentration of 0.2 g/L) and 30 μL of inducer (final concentration of AA of 800 μM) were added to the test wells, and then the “Start” key was pressed immediately. The maximum aggregation rate was recorded every 60 s. The measurement was repeated three times for each concentration for 10 minutes, and the aggregation curve was plotted.
The platelet aggregation inhibition rate was calculated with the following formula:
Inhibition rate (%)=(maximum aggregation rate in the model control group−maximum aggregation rate in the administration group)/maximum aggregation rate in the model control group×100%
All data were expressed as mean±standard deviation (mean±SD). SPSS 22.0 software was used for statistical analysis of the data. Intergroup data were analyzed using one-way ANOVA, with P<0.05 considered as statistically significant and P<0.01 considered as highly significant.

[2] = Pharmacokinetics in SD rats after single IV and PO administration, plasma; format: in vivo; conditions: for Vd / AUC(0-inf) / AUC(0-t) / C0 / Cmax / Tmax / half-life / MRT last / MRT inf / bioavailability: Sprague-Dawley (SD), rat plasma; for Vd: rat, plasma, iv, 1 mg/kg; for MRT last: read-out: MRT(0−t); for MRT inf: read-out: MRT(0−∞); for bioavailability: PO 6 mg/kg vs IV 1 mg/kg
Description: The experimental method of administration by gavage injection in rats: SD rats weighing 180 to 220 g were fasted for 12 hours prior to the experiment, with free access to water. After administration, food and water were withheld for 4 hours. After this 4-hour period, the rats were allowed free access to water, and food was provided after 8 hours. The drugs were administered at a set dose. N=3, blood samples were taken before administration, and 5 minutes, 0.25 hours, 0.5 hours, 0.75 hours, 1 hour, 2 hours, 4 hours, 8 hours, and 24 hours after administration, respectively, and placed into sodium heparin anticoagulant tubes. The tubes were centrifuged for 1 hour at 4° C. and at 8000 rpm for 5 minutes, and the plasma was then separated and stored in centrifuge tubes at −70° C. for analysis. The experimental method of intravenous administration to rats: SD rats weighing 180 to 220 g were fasted for 12 hours prior to the experiment, with free access to water. After administration, food and water were withheld for 4 hours. After this 4-hour period, the rats were allowed free access to water, and food was provided after 8 hours. The drugs were administered at a set dose. N=3, blood samples were taken before administration, and 5 minutes, 0.25 hours, 0.5 hours, 0.75 hours, 1 hour, 2 hours, 4 hours, 8 hours, and 24 hours after administration, respectively, and placed into sodium heparin anticoagulant tubes. The tubes were centrifuged for 1 hour at 4° C. and at 8000 rpm for 5 minutes, and the plasma was then separated and stored in centrifuge tubes at −70° C. for analysis. The plasma concentration-time data were processed using the Phoenix® WinNonlin® 8.0 program to calculate pharmacokinetic parameters. Among them, Cmax and Tmax are measured values, the elimination rate constant k of the tail section of the C-t curve is obtained from the linear regression of LnC-t, and the value of AUC0-4 is calculated by the trapezoidal area method, and the area under the curve from 0 to ∞ time is AUC=AUC0-4+Ct/k. [table]

| Structure (SMILES) | significant inhibition of AA-induced platelet aggregation [1] | Vd ([2]; IV 1 mg/kg, read-out: Vss) | Vd ([2]; IV 1 mg/kg, read-out: Vz) | AUC(0-inf) ([2]; IV 1 mg/kg) | AUC(0-t) ([2]; IV 1 mg/kg) | C0 ([2]; IV 1 mg/kg) | Cmax ([2]; IV 1 mg/kg) | Tmax ([2]; IV 1 mg/kg) | half-life ([2]; IV 1 mg/kg) | MRT last ([2]; IV 1 mg/kg) | MRT inf ([2]; IV 1 mg/kg) | AUC(0-inf) ([2]; PO 6 mg/kg) | AUC(0-t) ([2]; PO 6 mg/kg) | Cmax ([2]; PO 6 mg/kg) | Tmax ([2]; PO 6 mg/kg) | half-life ([2]; PO 6 mg/kg) | bioavailability [2] | MRT last ([2]; PO 6 mg/kg) | MRT inf ([2]; PO 6 mg/kg) | T1/2 and AUC(0-∞) in the whole body blood circulation system as compared to that of Ozagrel ([2]; intravenously at 1 mg/kg) | further results |
| --- | --- | --- | --- | --- | --- | --- | --- | --- | --- | --- | --- | --- | --- | --- | --- | --- | --- | --- | --- | --- | --- |
| O=C(O)[C@@H]1C[C@H]1c1ccc(Cn2cnc(Cl)c2)c(Cl)c1 [Compound 11, (1R,2R)-2-(3-Chloro-4-((4-chloro-1H-imidazol-1-yl)methyl)phenyl)cyclopropane-1-carboxylic acid] | can significantly inhibit | 0.22 L/kg | 0.22 L/kg | 228 µg·h/mL | 86.4 µg·h/mL | 5150 ng/mL | 5140 ng/mL | 0.083 h | 34.8 h | 10.5 h | 50.1 h | 1700 µg·h/mL | 587 µg·h/mL | 32400 ng/mL | 4 h | 37 h | 113% | 11 h | 54.4 h | significantly increased | T1/2 and AUC(0-∞) in the whole body blood circulation system as compared to that of Ozagrel ([2]; orally at 6 mg/kg): significantly increased |
| O=C(O)[C@@H]1C[C@H]1c1ccc(Cn2ccnc2)c(F)c1 [Compound 15, (1R,2R)-2-(4-((1H-Imidazol-1-yl)methyl)-3-fluorophenyl)cyclopropane-1-carboxylic acid] | can significantly inhibit | 0.34 L/kg | 0.38 L/kg | 3.44 µg·h/mL | 3.43 µg·h/mL | 3710 ng/mL | 3160 ng/mL | 0.083 h | 0.91 h | 1.14 h | 1.16 h | 80.7 µg·h/mL | 78.4 µg·h/mL | 18600 ng/mL | 1 h | 1.51 h | 381% | 2.57 h | 2.79 h | significantly increased | T1/2 and AUC(0-∞) in the whole body blood circulation system as compared to that of Ozagrel ([2]; orally at 6 mg/kg): significantly increased |
| O=C(O)[C@@H]1C[C@H]1c1ccc(Cn2cnc(F)c2)cc1F [Compound 17, (1R,2R)-2-(2-Fluoro-4-((4-fluoro-1H-imidazol-1-yl)methyl)phenyl)cyclopropane-1-carboxylic acid] | can significantly inhibit | 0.22 L/kg | 0.27 L/kg | 17.6 µg·h/mL | 17.5 µg·h/mL | 7320 ng/mL | 6840 ng/mL | 0.083 h | 3.24 h | 3.8 h | 3.91 h | 179 µg·h/mL | 178 µg·h/mL | 27200 ng/mL | 2 h | 2.96 h | 169% | 4.16 h | 4.25 h | significantly increased | T1/2 and AUC(0-∞) in the whole body blood circulation system as compared to that of Ozagrel ([2]; orally at 6 mg/kg): significantly increased |
| O=C(O)[C@@H]1C[C@H]1c1ccc(Cn2cnc(F)c2)c(Cl)c1 [Compound 18, (1R,2R)-2-(3-Chloro-4-((4-fluoro-1H-imidazol-1-yl)methyl)phenyl)cyclopropane-1-carboxylic acid] | can significantly inhibit | 0.2 L/kg | 0.21 L/kg | 70.7 µg·h/mL | 55.9 µg·h/mL | 6590 ng/mL | 6340 ng/mL | 0.083 h | 10.4 h | 7.73 h | 14.3 h | 757 µg·h/mL | 576 µg·h/mL | 41400 ng/mL | 1 h | 11.6 h | 172% | 8.39 h | 16.1 h | significantly increased | T1/2 and AUC(0-∞) in the whole body blood circulation system as compared to that of Ozagrel ([2]; orally at 6 mg/kg): significantly increased |
| O=C(O)[C@@H]1C[C@H]1c1ccc(Cn2ccnc2)cc1 [Compound 19, (1R,2R)-2-(4-((1H-Imidazol-1-yl)methyl)phenyl)cyclopropane-1-carboxylic acid] | can significantly inhibit | 0.16 L/kg | 0.2 L/kg | 3.25 µg·h/mL | 3.25 µg·h/mL | 6870 ng/mL | 5490 ng/mL | 0.083 h | 0.44 h | 0.5 h | 0.51 h | 36.6 µg·h/mL | 36.6 µg·h/mL | 27300 ng/mL | 0.25 h | 0.72 h | 188% | 1.19 h | 1.2 h | – | – |
| O=C(O)/C=C/c1ccc(Cn2ccnc2)cc1 [Ozagrel, reference compound] | – | 0.25 L/kg | 0.74 L/kg | 0.51 µg·h/mL | 0.51 µg·h/mL | 3670 ng/mL | 1840 ng/mL | 0.083 h | 0.26 h | 0.12 h | 0.13 h | 2.68 µg·h/mL | 2.68 µg·h/mL | 3780 ng/mL | 0.25 h | 0.73 h | 87.5% | 0.62 h | 0.63 h | – | – |

Source: US20240336638A1, “IMIDAZOLE COMPOUND, AND INTERMEDIATE AND APPLICATION THEREOF” (priority 2021, published 2024)
